Each structure is given as a SMILES string.

What all share (assay type): in vivo
Common to all, as to conditions: evaluated after 13 days

Experiment [1] deals with Alopecurus myosuroides (ALOMY). The experiment is described as follows: Herbicidal glasshouse test, post-emergence, ALOMY.
The test system of experiment [2] is Ipomoea hederacea (IPOHE). In words: Herbicidal glasshouse test, pre-emergence, IPOHE.
In experiment [3] the test system is Ipomoea hederacea (IPOHE). In words: Herbicidal glasshouse test, post-emergence, IPOHE.
Experiment [4] has as its system Setaria faberi (SETFA). In words: Herbicidal glasshouse test, pre-emergence, SETFA.
Experiment [5] deals with Solanum nigrum (SOLNI). The experiment is described as follows: Herbicidal glasshouse test, pre-emergence, SOLNI. Put shortly:
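Seeds of Solanum nigrum were sown in pots of standard soil and kept one day in a glasshouse at 24/16° C. day/night, 14 hours light and 65% humidity. For the pre-emergence treatment they were then sprayed with an aqueous solution of the active ingredient formulated in acetone/water (50:50) containing 0.5% Tween 20. Plant damage was rated after 13 days.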

The subject of experiment [6] is Setaria faberi (SETFA). In words: Herbicidal glasshouse test, post-emergence, SETFA. Put shortly:
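Setaria faberi seeds were sown in standard soil in pots and grown for 8 days in a glasshouse at 24/16° C. day/night, 14 hours light and 65% humidity. The seedlings were then sprayed post-emergence with the active ingredient in acetone/water (50:50) containing 0.5% Tween 20. Afterwards they were kept under the same conditions, watered twice daily, and scored for percentage damage on a five point scale.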

The subject of experiment [7] is Solanum nigrum (SOLNI). In words: Herbicidal glasshouse test, post-emergence, SOLNI.
Experiment [8] relates to Amaranthus retoflexus (AMARE). The experiment is described as follows: Herbicidal glasshouse test, post-emergence, AMARE. A digest of the protocol:
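Amaranthus retoflexus (AMARE) seeds were sown in pots of standard soil and grown in a glasshouse at 24/16° C. day/night, 14 hours light and 65% humidity for 8 days. The plants were then sprayed post-emergence with an aqueous solution of the active ingredient in acetone/water (50:50) with 0.5% Tween 20. Damage was scored after 13 days.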

For experiment [9], the system named is Echinochloa crus-galli (ECHCG). The experiment is described as follows: Herbicidal glasshouse test, pre-emergence, ECHCG. Put shortly: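 Echinochloa crus-galli seeds were sown in standard soil in pots and grown for one day in a glasshouse at 24/16° C. day/night, 14 hours light and 65% humidity. Pre-emergence spraying used an aqueous solution of the active ingredient in acetone/water (50:50) with 0.5% Tween 20. Damage was scored after 13 days on a five point scale.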

The test system of experiment [10] is Amaranthus retoflexus (AMARE). The experiment is described as follows: Herbicidal glasshouse test, pre-emergence, AMARE. A digest of the protocol:
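Amaranthus retoflexus seeds were sown in pots of standard soil and kept one day in a glasshouse at 24/16° C. (day/night), 14 hours light and 65% humidity. They were then sprayed pre-emergence with the active ingredient in acetone/water (50:50) containing 0.5% Tween 20. Plants grew under the same conditions, watered twice daily, and percentage damage was scored after 13 days.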

The subject of experiment [11] is Echinochloa crus-galli (ECHCG). The experiment is described as follows: Herbicidal glasshouse test, post-emergence, ECHCG. Put shortly: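 Echinochloa crus-galli (ECHCG) seeds were sown in standard soil in pots and grown for 8 days in a glasshouse at 24/16° C. day/night, 14 hours light and 65% humidity. The young plants were then sprayed post-emergence with the active ingredient in acetone / water (50:50) containing 0.5% Tween 20. Damage was scored after 13 days.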

The test system of experiment [12] is Alopecurus myosuroides (ALOMY). In words: Herbicidal glasshouse test, pre-emergence, ALOMY.

For `Cn1nnnc1NC(=O)c1nn(C)c(=O)n(-c2ccc(Cl)c(C#N)c2)c1=O` [Compound 1.047], the “POST Application ALOMY, percentage damage (five point scale)” value in [1] (applied at 250 g/ha) is listed as 3 (3=40-59%). For the same molecule, the “PRE Application IPOHE, percentage damage (five point scale)” value (from here on “PRE Application IPOHE, percentage damage”) in experiment [2] (applied at 250 g/ha) was 5 (5=80-100%). Moreover, the “POST Application IPOHE, percentage damage (five point scale)” value in experiment [3] (applied at 250 g/ha) was 4 (4=60-79%). For the same molecule, the “PRE Application SETFA, percentage damage (five point scale)” value (shortened to “PRE Application SETFA, percentage damage”) in the experiment with Setaria faberi (SETFA) [4] (applied at 250 g/ha) was 1 (1=0-19%). The “PRE Application SOLNI, percentage damage (five point scale)” value (“PRE Application SOLNI, percentage damage” below) in the experiment on Solanum nigrum (SOLNI) [5] (applied at 250 g/ha) is 5 (5=80-100%). The “POST Application SETFA, percentage damage (five point scale)” value in the experiment on Setaria faberi (SETFA) [6] (applied at 250 g/ha) is given as 1 (1=0-19%). Further, the “POST Application SOLNI, percentage damage (five point scale)” value in the experiment with Solanum nigrum (SOLNI) [7] (applied at 250 g/ha) is recorded as 5 (5=80-100%). In addition, in [8] (applied at 250 g/ha), the “POST Application AMARE, percentage damage (five point scale)” value is reported as 5 (5=80-100%). For the same molecule, in experiment [9] (applied at 250 g/ha), the “PRE Application ECHCG, percentage damage (five point scale)” value (from here on “PRE Application ECHCG, percentage damage”) is reported as 3 (3=40-59%). Also, the “PRE Application AMARE, percentage damage (five point scale)” value (shortened to “PRE Application AMARE, percentage damage”) in [10] (applied at 250 g/ha) was 5 (5=80-100%). The “POST Application ECHCG, percentage damage (five point scale)” value in experiment [11] (applied at 250 g/ha) was 3 (3=40-59%). In addition, the “PRE Application ALOMY, percentage damage (five point scale)” value (“PRE Application ALOMY, percentage damage” below) in experiment [12] (applied at 250 g/ha) is on record as 1 (1=0-19%).

Consider `Cn1nnnc1NC(=O)c1nn(C)c(=O)n(-c2cccc(F)c2F)c1=O` [Compound 1.003], for which the “POST Application ALOMY, percentage damage (five point scale)” value in [1] (applied at 1000 g/h) is on record as 5 (5=80-100%). Besides, the “PRE Application IPOHE, percentage damage” value in experiment [2] (applied at 1000 g/h) is listed as 5 (5=80-100%). Further, the “POST Application IPOHE, percentage damage (five point scale)” value in [3] (applied at 1000 g/h) is listed as 5 (5=80-100%). Further, the “PRE Application SETFA, percentage damage” value in the experiment on Setaria faberi (SETFA) [4] (applied at 1000 g/h) is 5 (5=80-100%). The “PRE Application SOLNI, percentage damage” value in the experiment on Solanum nigrum (SOLNI) [5] (applied at 1000 g/h) was 5 (5=80-100%). For the same molecule, the “POST Application SETFA, percentage damage (five point scale)” value in the experiment on Setaria faberi (SETFA) [6] (applied at 1000 g/h) is reported as 5 (5=80-100%). In the experiment with Solanum nigrum (SOLNI) [7] (applied at 1000 g/h), the “POST Application SOLNI, percentage damage (five point scale)” value is 5 (5=80-100%). Also, the “POST Application AMARE, percentage damage (five point scale)” value in experiment [8] (applied at 1000 g/h) was 5 (5=80-100%). For the same molecule, the “PRE Application ECHCG, percentage damage” value in [9] (applied at 1000 g/h) is 5 (5=80-100%). Also, in experiment [10] (applied at 1000 g/h), the “PRE Application AMARE, percentage damage” value was 5 (5=80-100%). Also, the “POST Application ECHCG, percentage damage (five point scale)” value in experiment [11] (applied at 1000 g/h) was 5 (5=80-100%). Also, the “PRE Application ALOMY, percentage damage” value in [12] (applied at 1000 g/h) is recorded as 5 (5=80-100%).

Regarding `Cn1ncnc1OC(=O)c1cn(C)c(=O)n(-c2cccc(F)c2)c1=O` [Compound 2.001], the “POST Application ALOMY, percentage damage (five point scale)” value in experiment [1] (applied at 1000 g/h) is listed as 1 (1=0-19%). Besides, the “PRE Application IPOHE, percentage damage” value in [2] (applied at 1000 g/h) is listed as 1 (1=0-19%). The “POST Application IPOHE, percentage damage (five point scale)” value in experiment [3] (applied at 1000 g/h) is listed as 1 (1=0-19%). In the experiment on Setaria faberi (SETFA) [4] (applied at 1000 g/h), the “PRE Application SETFA, percentage damage” value is given as 1 (1=0-19%). Further, in the experiment on Solanum nigrum (SOLNI) [5] (applied at 1000 g/h), the “PRE Application SOLNI, percentage damage” value was 1 (1=0-19%). Besides, the “POST Application SETFA, percentage damage (five point scale)” value with Setaria faberi (SETFA) [6] (applied at 1000 g/h) is given as 1 (1=0-19%). In addition, the “POST Application SOLNI, percentage damage (five point scale)” value in the experiment with Solanum nigrum (SOLNI) [7] (applied at 1000 g/h) is reported as 4 (4=60-79%). Also, the “POST Application AMARE, percentage damage (five point scale)” value in experiment [8] (applied at 1000 g/h) is 4 (4=60-79%). Further, the “PRE Application ECHCG, percentage damage” value in experiment [9] (applied at 1000 g/h) is reported as 1 (1=0-19%). Further, the “PRE Application AMARE, percentage damage” value in experiment [10] (applied at 1000 g/h) is 1 (1=0-19%). In experiment [11] (applied at 1000 g/h), the “POST Application ECHCG, percentage damage (five point scale)” value is 1 (1=0-19%). In addition, the “PRE Application ALOMY, percentage damage” value in [12] (applied at 1000 g/h) is 1 (1=0-19%).

As to `Cn1nnnc1NC(=O)c1nn(C)c(=O)n(Cc2c(F)cc(F)cc2F)c1=O` [Compound 1.056], in [1] (applied at 1000 g/h), the “POST Application ALOMY, percentage damage (five point scale)” value was 5 (5=80-100%). In addition, in experiment [2] (applied at 1000 g/h), the “PRE Application IPOHE, percentage damage” value is given as 5 (5=80-100%). For the same molecule, in experiment [3] (applied at 1000 g/h), the “POST Application IPOHE, percentage damage (five point scale)” value was 5 (5=80-100%). In addition, the “PRE Application SETFA, percentage damage” value in the experiment on Setaria faberi (SETFA) [4] (applied at 1000 g/h) is 1 (1=0-19%). Besides, in the experiment with Solanum nigrum (SOLNI) [5] (applied at 1000 g/h), the “PRE Application SOLNI, percentage damage” value is 5 (5=80-100%). In the experiment on Setaria faberi (SETFA) [6] (applied at 1000 g/h), the “POST Application SETFA, percentage damage (five point scale)” value is on record as 4 (4=60-79%). Besides, the “POST Application SOLNI, percentage damage (five point scale)” value in the experiment on Solanum nigrum (SOLNI) [7] (applied at 1000 g/h) is given as 5 (5=80-100%). Besides, in experiment [8] (applied at 1000 g/h), the “POST Application AMARE, percentage damage (five point scale)” value is 5 (5=80-100%). Also, the “PRE Application ECHCG, percentage damage” value in experiment [9] (applied at 1000 g/h) was 5 (5=80-100%). In addition, the “PRE Application AMARE, percentage damage” value in experiment [10] (applied at 1000 g/h) is 5 (5=80-100%). For the same molecule, the “POST Application ECHCG, percentage damage (five point scale)” value in experiment [11] (applied at 1000 g/h) is 4 (4=60-79%). Also, in experiment [12] (applied at 1000 g/h), the “PRE Application ALOMY, percentage damage” value is given as 5 (5=80-100%).
